Laboratory results as given in patent US8975234B2, “Anti-bacterial infection, inflammation, and leukemia composition and use thereof” (priority 2011, dated 2015).
Values after ≈ are worked out from the molar mass of the structure shown. Read-outs that look alike come from different tables or passages of the source.

Assays:
[1] = system: MSSA (Methicillin-susceptible Staphylococcus aureus); assay: Minimum inhibitory concentration (broth microdilution) and FIC index; type: cell-based
Description: (§1) A serial of twofold dilution of the tested antibiotics (oxacillin, erythromycin, ampicillin, kanamycin, levofoxacin, vancomycin and doxycycline) was perform by Broth microdilution method to a final concentration of 2-512 μg/mL. The bacterial overnight culture was collected and re-suspended in the Muller-Hilton (M-H) broth. An aliquot of cell suspension (OD600=0.1) was prepared. The bacterial suspensions were plated in 96-well plate and incubated with test antibiotics at 37° C. in a 5% CO2 incubator (Table 1 to Table 4).
(§2) The […], […] and antagonism between two drugs was evaluated by the following formula:
(§3) [formula] The criteria of fractional inhibitory concentration index: […]

MRSA 18271 = assay: as above; type: cell-based, Staphylococcus aureus
Description: as §1, §2, §3

MRSA 18631 = assay: as above; type: cell-based, Staphylococcus aureus
Description: as §1, §2, §3

MRSA 19615 = assay: as above; type: cell-based, Staphylococcus aureus
Description: as §1, §2, §3

[2] = system: standard MRSA strain (ATCC 33591); assay: Minimum inhibitory concentration (broth microdilution); type: cell-based, Staphylococcus aureus; details: Table 1; for MIC: Staphylococcus aureus
Description: as §1

DPPH scavenging assay = details: 100 μM; −FeCl2
Description: Test reagents, natural extracts and Vitamin C (ascorbic acid) were dissolved in methanol to make a stock solution 10×. Vitamin C was used as the positive control. 120 μM DPPH solution was prepared. Taken 20 μL of stock reagents, natural extracts and Vitamin C on a 96-well microplate, and methanol was added to make up to the total volume of 100 μL. Control was 100 μL methanol. Each sample was mixed with 100 μL DPPH solution and incubated in the dark for 40 minutes. DPPH level of each well was evaluated by detecting the optical density of each well at 517 nm and the results were shown in Table 5.

[3] = Table 3, MSSA, Tellimagrandin II (40 μg/ml) +
[4] = Table 3, 18271, Tellimagrandin II (40 μg/ml) +
[5] = Table 3, 18631, Tellimagrandin II (40 μg/ml) +
[6] = Table 3, 19615, Tellimagrandin II (40 μg/ml) +
[7] = Staphylococcus aureus, MSSA, Table 1, MSSA, read-out: Minimum inhibitory concentration
[8] = Staphylococcus aureus, MSSA, Table 2, Non-drug resistant Staphylococcus aureus, with TG II 30 μg/mL, read-out: MIC
[9] = Staphylococcus aureus, MSSA, Table 2, Non-drug resistant Staphylococcus aureus, without TG II, read-out: MIC
[10] = Staphylococcus aureus, MSSA, Table 3, MSSA, Tellimagrandin II (40 μg/ml) −, read-out: MIC
[11] = Table 2, Non-drug resistant Staphylococcus aureus, with TG II 30 μg/mL
[12] = Staphylococcus aureus, MRSA, Table 1, MRSA 18271, read-out: Minimum inhibitory concentration
[13] = Staphylococcus aureus, MRSA, Table 2, 18271, with TG II 30 μg/mL, read-out: MIC
[14] = Staphylococcus aureus, MRSA, Table 2, 18271, with TG II 40 μg/mL, read-out: MIC
[15] = Staphylococcus aureus, MRSA, Table 2, 18271, without TG II, read-out: MIC
[16] = Staphylococcus aureus, MRSA, Table 3, 18271, Tellimagrandin II (40 μg/ml) −, read-out: MIC
[17] = Table 2, 18271, with TG II 30 μg/mL
[18] = Table 2, 18271, with TG II 40 μg/mL
[19] = Staphylococcus aureus, MRSA, Table 1, MRSA 18631, read-out: Minimum inhibitory concentration
[20] = Staphylococcus aureus, MRSA, Table 2, 18631, with TG II 30 μg/mL, read-out: MIC
[21] = Staphylococcus aureus, MRSA, Table 2, 18631, with TG II 40 μg/mL, read-out: MIC
[22] = Staphylococcus aureus, MRSA, Table 2, 18631, without TG II, read-out: MIC
[23] = Staphylococcus aureus, MRSA, Table 3, 18631, Tellimagrandin II (40 μg/ml) −, read-out: MIC
[24] = Table 2, 18631, with TG II 30 μg/mL
[25] = Table 2, 18631, with TG II 40 μg/mL
[26] = Staphylococcus aureus, MRSA, Table 1, MRSA 19615, read-out: Minimum inhibitory concentration
[27] = Staphylococcus aureus, MRSA, Table 2, 19615, with TG II 30 μg/mL, read-out: MIC
[28] = Staphylococcus aureus, MRSA, Table 2, 19615, with TG II 40 μg/mL, read-out: MIC
[29] = Staphylococcus aureus, MRSA, Table 2, 19615, without TG II, read-out: MIC
[30] = Staphylococcus aureus, MRSA, Table 3, 19615, Tellimagrandin II (40 μg/ml) −, read-out: MIC
[31] = Table 2, 19615, with TG II 30 μg/mL
[32] = Table 2, 19615, with TG II 40 μg/mL

Compound	FIC [1, 3]	MIC [1, 3]	MIC (MRSA 18271; Staphylococcus aureus, MRSA)	FIC (MRSA 18271; [4])	MIC (MRSA 18271; [4])	MIC (MRSA 18631; Staphylococcus aureus, MRSA)	FIC (MRSA 18631; [5])	MIC (MRSA 18631; [5])	MIC (MRSA 19615; Staphylococcus aureus, MRSA)	FIC (MRSA 19615; [6])	MIC (MRSA 19615; [6])	MIC [1, 7]	MIC [1, 10]	MIC (MRSA 18271; [12])	MIC (MRSA 18271; [16])	MIC (MRSA 18631; [19])	MIC (MRSA 18631; [23])	MIC (MRSA 19615; [26])	MIC (MRSA 19615; [30])	MIC [2]	further results
CC1(C)S[C@@H]2[C@H](NC(=O)[C@H](N)c3ccccc3)C(=O)N2[C@H]1C(=O)O [Ampicillin]	0.50	256 µg/mL	512 µg/mL	0.031	16 µg/mL	512 µg/mL	1.00	512 µg/mL	512 µg/mL	1.00	512 µg/mL										MIC ([1]; Staphylococcus aureus, MSSA): 512 µg/mL
C[C@H]1c2cccc(O)c2C(=O)C2=C(O)[C@]3(O)C(=O)C(C(N)=O)=C(O)[C@@H](N(C)C)[C@@H]3[C@@H](O)[C@@H]21 [Doxycycline]	0.063	8 µg/mL		0.004	2 µg/mL		0.008	2 µg/mL		0.016	8 µg/mL	128 µg/mL	128 µg/mL	> 512 µg/mL	512 µg/mL	256 µg/mL	256 µg/mL	> 512 µg/mL	512 µg/mL	64 µg/mL (≈ 144 µM)	MIC [1, 8]: 16 µg/mL; MIC ([1]; Staphylococcus aureus, MSSA, Table 2, Non-drug resistant Staphylococcus aureus, with TG II 40 μg/mL, read-out: MIC): 8 µg/mL; MIC [1, 9]: 128 µg/mL; FIC [1, 11]: 0.125; FIC ([1]; Table 2, Non-drug resistant Staphylococcus aureus, with TG II 40 μg/mL): 0.016; MIC (MRSA 18271; [13]): 2 µg/mL; MIC (MRSA 18271; [14]): 2 µg/mL; MIC (MRSA 18271; [15]): 512 µg/mL; FIC (MRSA 18271; [17]): 0.004; FIC (MRSA 18271; [18]): 0.004; MIC (MRSA 18631; [20]): 2 µg/mL; MIC (MRSA 18631; [21]): 2 µg/mL; MIC (MRSA 18631; [22]): 256 µg/mL; FIC (MRSA 18631; [24]): 0.008; FIC (MRSA 18631; [25]): 0.008; MIC (MRSA 19615; [27]): 16 µg/mL; MIC (MRSA 19615; [28]): 8 µg/mL; MIC (MRSA 19615; [29]): 512 µg/mL; FIC (MRSA 19615; [31]): 0.031; FIC (MRSA 19615; [32]): 0.016
CN[C@H](CC(C)C)C(=O)N[C@H]1C(=O)N[C@@H](CC(N)=O)C(=O)N[C@H]2C(=O)N[C@H]3C(=O)N[C@H](C(=O)N[C@H](C(=O)O)c4cc(O)cc(O)c4-c4cc3ccc4O)[C@H](O)c3ccc(c(Cl)c3)Oc3cc2cc(c3O[C@@H]2O[C@H](CO)[C@@H](O)[C@H](O)[C@H]2O[C@H]2C[C@](C)(N)[C@H](O)[C@H](C)O2)Oc2ccc(cc2Cl)[C@H]1O [Vancomycin]		>2 µg/mL	4 µg/mL	1.00	4 µg/mL	4 µg/mL	1.00	4 µg/mL	4 µg/mL	1.00	4 µg/mL										MIC ([1]; Staphylococcus aureus, MSSA): > 2 µg/mL
O=C1O[C@H]([C@@H](O)CO)C(O)=C1O [Vitamin C, ascorbic acid]																					DPPH free-radical scavenging activity (DPPH scavenging assay): 81.09 ± 0.5%
Penicillin																					Minimum inhibitory concentration ([1]; Table 1, MSSA): >512 µg/mL; Minimum inhibitory concentration (MRSA 18271; Table 1, MRSA 18271): >512 µg/mL; Minimum inhibitory concentration (MRSA 18631; Table 1, MRSA 18631): >512 µg/mL; Minimum inhibitory concentration (MRSA 19615; Table 1, MRSA 19615): >512 µg/mL; Minimum inhibitory concentration [2]: >512 µg/mL
CC[C@H]1OC(=O)[C@H](C)[C@@H](O[C@H]2C[C@@](C)(OC)[C@@H](O)[C@H](C)O2)[C@H](C)[C@@H](O[C@@H]2O[C@H](C)C[C@H](N(C)C)[C@H]2O)[C@](C)(O)C[C@@H](C)C(=O)[C@H](C)[C@@H](O)[C@]1(C)O [Erythromycin]	0.50	64 µg/mL	512 µg/mL	1.00	512 µg/mL	512 µg/mL	1.00	512 µg/mL	512 µg/mL	1.00	512 µg/mL	128 µg/mL		> 512 µg/mL		> 512 µg/mL		> 512 µg/mL		> 512 µg/mL	
C[C@H]1COc2c(N3CCN(C)CC3)c(F)cc3c(=O)c(C(=O)O)cn1c23 [Levofloxacin]	1.00	512 µg/mL		1.00	512 µg/mL		2.00	512 µg/mL		1.00	512 µg/mL	> 512 µg/mL	512 µg/mL	> 512 µg/mL	512 µg/mL	> 512 µg/mL	256 µg/mL	> 512 µg/mL	512 µg/mL	32 µg/mL (≈ 88.6 µM)	MIC [1, 8]: 8 µg/mL; MIC [1, 9]: > 512 µg/mL; FIC [1, 11]: 0.016; MIC (MRSA 18271; [13]): 512 µg/mL; MIC (MRSA 18271; [14]): 512 µg/mL; MIC (MRSA 18271; [15]): > 512 µg/mL; FIC (MRSA 18271; [17]): 1; FIC (MRSA 18271; [18]): 1; MIC (MRSA 18631; [20]): 512 µg/mL; MIC (MRSA 18631; [21]): 512 µg/mL; MIC (MRSA 18631; [22]): > 512 µg/mL; FIC (MRSA 18631; [24]): 1; FIC (MRSA 18631; [25]): 1; MIC (MRSA 19615; [27]): 512 µg/mL; MIC (MRSA 19615; [28]): 512 µg/mL; MIC (MRSA 19615; [29]): > 512 µg/mL; FIC (MRSA 19615; [31]): 1; FIC (MRSA 19615; [32]): 1
NC[C@H]1O[C@H](O[C@H]2[C@H](O)[C@@H](O[C@H]3O[C@H](CO)[C@@H](O)[C@H](N)[C@H]3O)[C@H](N)C[C@@H]2N)[C@H](O)[C@@H](O)[C@@H]1O [Kanamycin]												> 512 µg/mL	512 µg/mL	> 512 µg/mL	512 µg/mL	> 512 µg/mL	512 µg/mL	> 512 µg/mL	512 µg/mL	> 512 µg/mL	
